Format in all cases: functional, cell-based
Test [1] relates to HCT-8. Nature of the test: Cytotoxicity against human HCT8 cells after 72 hrs by MTT assay. The settings on record: HCT-8, 72 h.
The subject of test [2] is Bel-7402. Nature of the test: Cytotoxicity against human Bel7402 cells after 72 hrs by MTT assay. The settings on record: Bel-7402, 72 h.
The test system of test [3] is BGC-823. Nature of the test: Cytotoxicity against human BGC823 cells after 72 hrs by MTT assay. The settings on record: BGC-823, 72 h.
For test [4], the system named is A2780. Kind of test: Cytotoxicity against human A2780 cells after 72 hrs by MTT assay. The settings on record: A2780, 72 h.
Test [5] has as its system A549. Kind of test: Cytotoxicity against human A549 cells after 72 hrs by MTT assay. The settings on record: A549, 72 h. For orientation: Formazan colour is commonly taken as a measure of viable cells.

As to `COc1ccc(C(=O)O[C@H]2[C@H](O[C@@H]3CO[C@@H](O[C@@H](CC[C@@H](C)CO)[C@@H](C)[C@H]4[C@@H](O[C@@H]5OC[C@@H](O[C@@H]6OC[C@@H](O)[C@H](O)[C@H]6OC(=O)c6ccc(OC)cc6)[C@H](O)[C@H]5OC(C)=O)C[C@H]5[C@@H]6CC=C7C[C@@H](O)CC[C@]7(C)[C@H]6CC[C@]45C)[C@H](OC(C)=O)[C@H]3O)OC[C@@H](O)[C@@H]2O)cc1`, the 50% inhibitory concentration (IC50) in test [1], in test [2], in test [3], in test [4] and in test [5] was over 10000 nM each time.

`COc1ccc(C(=O)O[C@H]2[C@H](O[C@@H]3CO[C@@H](O[C@H]4C[C@H]5[C@@H]6CC=C7C[C@@H](O)CC[C@]7(C)[C@H]6CC[C@]5(C)[C@H]4[C@H](C)C(=O)CC[C@@H](C)CO)[C@H](OC(C)=O)[C@H]3O)OC[C@@H](O)[C@@H]2O)cc1`: the IC50 in test [1], in test [2], in test [3], in test [4] and in test [5] was over 10000 nM throughout.

As for `CC(=O)O[C@H]1C(=O)[C@@]2(C)[C@H]([C@H](OC(=O)c3ccccc3)[C@]3(O)C[C@H](OC(=O)[C@H](O)[C@@H](NC(=O)c4ccccc4)c4ccccc4)C(C)=C1C3(C)C)[C@]1(OC(C)=O)CO[C@@H]1C[C@@H]2O` [PACLITAXEL], the IC50 in test [1] was 51 nM; in test [2] it was 60 nM; in test [3], under 1 nM; in test [4], under 1 nM; in test [5], 16 nM.

For the molecule `COc1ccc(C(=O)O[C@H]2[C@H](O[C@@H]3[C@@H](OC(C)=O)[C@H](O[C@H]4C[C@H]5[C@@H]6CC=C7C[C@@H](O)CC[C@]7(C)[C@H]6CC[C@]5(C)[C@H]4[C@H](C)C(=O)CC[C@@H](C)CO)OC[C@H]3O)OC[C@@H](O)[C@@H]2O)cc1`, the IC50 in test [1] was determined as 23 nM; in test [2], 39 nM; in test [3] it was 13 nM; in test [4], 73 nM; in test [5] it was 46 nM.

As usually defined, the IC50 is the concentration needed to halve the response being measured. The low end stands for greater potency, the high end for weaker potency.

Source of the values: ChEMBL document CHEMBL1221378, “Synthesis of cholestane glycosides bearing OSW-1 disaccharide or its 1-->4-linked analogue and their antitumor activities” (Bioorg Med Chem Lett, 2010).
